Experiments:
[1] = target: 5-hydroxytryptamine receptor 6 (Homo sapiens, UniProt P50406); type: cell membranes, HeLa, Membrane; note: in other assays of this panel Not Active means under 50% inhibition at 10 µM
Adenosine receptor A2a = Adenosine receptor A2a (Homo sapiens, UniProt P29274); assay: DRUGMATRIX: Adenosine A2A radioligand binding (ligand: […]); type: cell membranes, HEK293, Membrane; settings: hek293; Not Active = under 50% inhibition at 10 µM
Progesterone receptor = target: T1, Progesterone receptor (Bos taurus, UniProt Q690N0); assay: DRUGMATRIX: Progesterone radioligand binding (ligand: [3H] R-5020); type: tissue-based, Uterus; settings: Not Active = under 50% inhibition at 10 µM
T1 sequence (Q690N0 whole entry): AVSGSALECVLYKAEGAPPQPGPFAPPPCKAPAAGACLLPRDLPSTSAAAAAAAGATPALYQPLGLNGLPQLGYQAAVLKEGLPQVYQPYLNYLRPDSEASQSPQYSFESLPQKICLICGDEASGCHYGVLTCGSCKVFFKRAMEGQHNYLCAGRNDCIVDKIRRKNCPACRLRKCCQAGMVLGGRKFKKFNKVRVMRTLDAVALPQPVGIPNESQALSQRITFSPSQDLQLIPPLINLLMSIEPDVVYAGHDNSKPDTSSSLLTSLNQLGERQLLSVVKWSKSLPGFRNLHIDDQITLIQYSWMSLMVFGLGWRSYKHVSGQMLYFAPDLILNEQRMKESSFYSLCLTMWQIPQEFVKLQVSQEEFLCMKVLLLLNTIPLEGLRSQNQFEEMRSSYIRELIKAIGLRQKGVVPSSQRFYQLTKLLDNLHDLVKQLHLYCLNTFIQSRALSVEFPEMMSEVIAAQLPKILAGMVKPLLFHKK

Substance-K receptor = target: T2, Substance-K receptor (Homo sapiens, UniProt P21452); type: cell membranes, CHO, Membrane; settings: cho; note: in other assays of this panel Not Active means under 50% inhibition at 10 µM
T2 sequence (P21452 whole entry): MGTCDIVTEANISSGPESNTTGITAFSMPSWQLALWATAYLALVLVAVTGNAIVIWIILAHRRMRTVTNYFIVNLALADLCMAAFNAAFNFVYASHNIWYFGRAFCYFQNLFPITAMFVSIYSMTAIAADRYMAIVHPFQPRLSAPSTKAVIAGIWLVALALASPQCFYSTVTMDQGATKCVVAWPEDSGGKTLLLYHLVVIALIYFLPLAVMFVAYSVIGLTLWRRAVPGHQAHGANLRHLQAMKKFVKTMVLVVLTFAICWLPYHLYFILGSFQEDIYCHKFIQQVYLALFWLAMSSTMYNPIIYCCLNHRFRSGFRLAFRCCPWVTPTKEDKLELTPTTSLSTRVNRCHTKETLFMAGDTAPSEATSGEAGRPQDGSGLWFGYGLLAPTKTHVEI

Calcitonin receptor = target: T3, Calcitonin receptor (Homo sapiens, UniProt P30988); type: cell membranes, Membrane; settings: t47d; note: in other assays of this panel Not Active means under 50% inhibition at 10 µM
T3 sequence (P30988 whole entry): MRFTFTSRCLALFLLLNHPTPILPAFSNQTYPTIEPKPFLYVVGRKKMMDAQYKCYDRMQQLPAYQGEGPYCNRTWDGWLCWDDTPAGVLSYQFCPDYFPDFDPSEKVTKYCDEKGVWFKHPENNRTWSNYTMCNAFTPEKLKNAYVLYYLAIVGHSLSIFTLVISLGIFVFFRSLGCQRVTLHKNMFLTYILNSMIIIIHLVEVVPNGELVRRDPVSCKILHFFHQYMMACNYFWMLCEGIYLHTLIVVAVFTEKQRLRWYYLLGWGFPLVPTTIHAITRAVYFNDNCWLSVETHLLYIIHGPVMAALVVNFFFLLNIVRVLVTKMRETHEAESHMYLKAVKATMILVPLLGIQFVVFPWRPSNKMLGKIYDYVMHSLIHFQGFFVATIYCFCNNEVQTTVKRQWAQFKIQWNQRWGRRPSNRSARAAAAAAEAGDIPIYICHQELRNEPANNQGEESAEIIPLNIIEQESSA

Sequence of 5-hydroxytryptamine receptor 6 (P50406 whole entry): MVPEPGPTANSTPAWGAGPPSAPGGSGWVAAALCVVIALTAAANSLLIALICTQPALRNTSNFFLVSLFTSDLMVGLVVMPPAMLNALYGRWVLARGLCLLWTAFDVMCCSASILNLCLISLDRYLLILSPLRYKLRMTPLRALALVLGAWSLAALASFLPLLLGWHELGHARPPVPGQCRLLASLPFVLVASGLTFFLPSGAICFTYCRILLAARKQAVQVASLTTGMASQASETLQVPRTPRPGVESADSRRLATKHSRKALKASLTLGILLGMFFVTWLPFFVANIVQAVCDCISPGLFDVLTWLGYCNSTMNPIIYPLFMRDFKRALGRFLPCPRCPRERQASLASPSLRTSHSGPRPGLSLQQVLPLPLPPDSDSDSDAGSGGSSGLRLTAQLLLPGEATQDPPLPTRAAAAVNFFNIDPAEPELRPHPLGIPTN
Sequence of Adenosine receptor A2a (P29274 whole entry): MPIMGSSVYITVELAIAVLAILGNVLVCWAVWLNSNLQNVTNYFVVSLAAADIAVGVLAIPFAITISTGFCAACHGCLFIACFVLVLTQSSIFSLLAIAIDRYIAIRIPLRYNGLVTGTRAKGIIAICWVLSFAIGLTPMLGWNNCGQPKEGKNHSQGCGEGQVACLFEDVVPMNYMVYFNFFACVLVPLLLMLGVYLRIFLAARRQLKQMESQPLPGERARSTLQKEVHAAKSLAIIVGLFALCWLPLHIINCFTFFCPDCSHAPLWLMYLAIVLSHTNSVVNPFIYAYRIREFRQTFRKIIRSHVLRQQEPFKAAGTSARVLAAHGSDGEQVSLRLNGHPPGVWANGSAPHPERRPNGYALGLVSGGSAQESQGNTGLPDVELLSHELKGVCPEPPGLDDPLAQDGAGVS

| Compound | IC50 ([1]; hela) | IC50 (Adenosine receptor A2a) | IC50 (Progesterone receptor) | IC50 (Substance-K receptor) | IC50 (Calcitonin receptor) | Ki ([1]; hela) | Ki (Adenosine receptor A2a) | Ki (Progesterone receptor) | Ki (Substance-K receptor) | Ki (Calcitonin receptor) | IC50 ([1]; read-out: IC50) | Ki ([1]; read-out: Ki) |
| --- | --- | --- | --- | --- | --- | --- | --- | --- | --- | --- | --- | --- |
| O=C(O)COC(=O)Cc1ccccc1Nc1c(Cl)cccc1Cl [ACECLOFENAC] | Not Active | Not Active | Not Active | Not Active | Not Active |  |  |  |  |  |  |  |
| O=c1[nH]c2ccccc2c2ccccc12 | Not Active | Not Active | Not Active | Not Active | Not Active |  |  |  |  |  |  |  |
| C=CCN1CC[C@]23c4c5ccc(O)c4O[C@H]2/C(=N/N=C2\CC[C@@]4(O)[C@H]6Cc7ccc(O)c8c7[C@@]4(CCN6CC=C)[C@H]2O8)CC[C@@]3(O)[C@H]1C5 [NALOXONAZINE] | Not Active | Not Active | Not Active | Not Active | Not Active |  |  |  |  |  |  |  |
| ClC1=C(Cl)[C@]2(Cl)[C@@H]3[C@@H]4C[C@@H]([C@H]5O[C@@H]45)[C@@H]3[C@@]1(Cl)C2(Cl)Cl [DIELDRIN] | Not Active | Not Active | Not Active | Not Active | Not Active |  |  |  |  |  |  |  |
| COPPER(II) OXIDE | Not Active | Not Active | Not Active | Not Active | Not Active | Not Active | Not Active | Not Active | Not Active | Not Active |  |  |
| CCO [ALCOHOL] | Not Active | Not Active | Not Active | Not Active | Not Active |  |  |  |  |  |  |  |
| CC(N)Cc1c[nH]c2ccc(OCc3cccs3)cc12 (configuration not stated) [BW-723C86] |  | Not Active | Not Active | Not Active | Not Active |  |  |  |  |  | 0.641 µM | 0.298 µM |
| CCN(CCO)CCCC(C)Nc1ccnc2cc(Cl)ccc12 (configuration not stated) [HYDROXYCHLOROQUINE] | Not Active | Not Active | Not Active | Not Active | Not Active |  |  |  |  |  |  |  |
| c1ccc2sc(SSc3nc4ccccc4s3)nc2c1 [BENZOTHIAZYL DISULFIDE] |  | Not Active | Not Active | Not Active | Not Active |  |  |  |  |  | 5.28 µM | 2.45 µM |
| CC(C)Cc1ccc([C@H](C)C(=O)O)cc1 [DEXIBUPROFEN] | Not Active | Not Active | Not Active | Not Active | Not Active |  |  |  |  |  |  |  |
| Cl.NC[C@H]1CC[C@H](C(=O)Oc2ccc(CCC(=O)O)cc2)CC1 [CETRAXATE HYDROCHLORIDE] | Not Active | Not Active | Not Active | Not Active | Not Active |  |  |  |  |  |  |  |
| Nc1nc(N)c2nc(CNc3ccc(C(=O)N[C@@H](CCC(=O)O)C(=O)O)cc3)cnc2n1 [AMINOPTERIN] | Not Active | Not Active | Not Active | Not Active | Not Active |  |  |  |  |  |  |  |
| NC(=O)NC(=O)Cc1ccccc1 [PHENACEMIDE] | Not Active | Not Active | Not Active | Not Active | Not Active |  |  |  |  |  |  |  |
| C[N+](C)(C)CCOC(N)=O.[Cl-] [CARBACHOL] | Not Active | Not Active | Not Active | Not Active | Not Active |  |  |  |  |  |  |  |
| O=C1c2ccccc2C(=O)C1c1ccccc1 [PHENINDIONE] | Not Active | Not Active | Not Active | Not Active | Not Active |  |  |  |  |  |  |  |
| CC(C)NCC(O)COc1ccc(CC(N)=O)cc1 (configuration not stated) [ATENOLOL] | Not Active | Not Active | Not Active | Not Active | Not Active |  |  |  |  |  |  |  |
